Experiments:
HeLa cells = assay: ProTAME activation analysis (LC/MS) in HeLa cells; format: in vitro ADME, human; details: 20 μM
Protocol: (§1) ProTAME was added to interphase Xenopus extract at 50 μM or cell growth media at 20 μM. For interphase extract, 800 μl of sample was collected at 0 min, 10 min, 20 min and 30 min after addition of proTAME and diluted to 8 ml with XB. For cell culture, approximately 800,000 cells were collected at 1 h, 2 h and 3 h after addition of proTAME and lysed in 400 μl lysis buffer as described above and subsequently diluted to 4 ml with lysis buffer. The diluted extract or cell lysate was extracted with 1.5 volume of ethyl acetate. The extracts were dried in vacuo and the dry extracts were resuspended in 200 μl of methanol for LC/MS analysis. LC/MS data were obtained using an Agilent series 1200 LC/6130 MS system with a reversed-phase C18 column (Phenomenex Luna C18(2), 4.6 mm×100 mm, 5 μm) and a CH3CN/H2O gradient solvent system beginning with 10% aqueous CH3CN and ending at 100% CH3CN at 20 min. 10 μl of each sample was injected for each analysis.

hTERT-RPE1 H2B-GFP cells = assay: Live imaging of mitotic duration in hTERT-RPE1 H2B-GFP cells; format: cell-based, human
Protocol: FIG. 18A is a graph and table showing that proTAME induces a mitotic delay in hTERT-RPE1 H2B-GFP cells. Asynchronous hTERT-RPE1 H2B-GFP cells were treated with 0.06% DMSO, 6 μM proTAME or 12 μM proAAME. Cells were imaged at 12 min interval. Cumulative frequency curves of mitotic duration and cell fate distribution are shown.
The imaging plate was mounted onto a motorized stage (Prior ProScan II) on a Nikon TE2000E PFS inverted microscope fitted with an incubation chamber maintained at 37° C. and supplied with 5% CO2. A 20× Plan Apo 0.75 NA or 40× Plan Fluor 0.75 NA objective lens was used as indicated and images were collected with 2×2 binning. DIC or GFP fluorescent images were taken every 12 min (unless otherwise specified) for 36 h with a Hamamatsu ORCA cooled CCD camera and Nikon Elements Software. TIFF files of each image were exported from Elements and used to build stacks and Quicktime movies with Metamorph imaging software (Molecular Devices). For manual analysis, mitotic duration is counted as the time between the first frame of chromosome condensation and the frame of chromosome segregation (anaphase) or decondensation (mitotic exit in the presence of nocodazole) or cell death (chromosomes shrinking to a small bright dot).

APC = biological target: T1, APC (Homo sapiens, UniProt P30260); assay: Cdc20/Cdh1 binding assay in HeLa cells (APC immunoprecipitation); format: cell-based
T1 construct: endogenous in cells; host or cells: HeLa cells (synchronised; some with Mad2/BubR1 siRNA and cyclin B1-delta107 adenovirus)
Protocol: HeLa cells in DMEM 10% FBS were plated in T25 flasks at 20% confluence one day prior to the experiment. They were then synchronized by a double thymidine block (18 h for the first block, 8 h release and another 18 h for the second block, thymidine concentration: 2 mM). For analysis of Cdh1 binding, cells were released into […] from the second thymidine block for 13 h and then washed into fresh medium. Six h later, cells were treated with 12 μM proTAME or proAAME or 0.06% DMSO for 2 h and then collected by trypin digestion. For analysis of Cdc20 binding, cells were transfected with indicated siRNAs during the first release from thymidine block after two washes with DPBS (CellGro 21-030-CV) and addition of 6.3 ml OptiMEM. A volume (79 μl) of 20 μl Control siRNA#3 or a 1:1 mix of 20 μl MAD2 siRNA and BubR1 siRNA (Dharmacon D-004101-01, 5′-[…]-3′ (SEQ ID NO: 11)) was mixed in 1381 μl OptiMEM in a tube, 23.7 μl OligoFectamine were mixed with 94.1 μl OptiMEM in a second tube. After 5 min incubation at RT, the tubes contents were mixed and siRNA-reagent complexes were allowed to form for 20 min at RT. The transfection mixes were added to cells in OptiMEM and FBS was added to 10% after 5 h transfection. Cyclin B1-Δ107 expressing adenovirus (1:100) was added at the start of the second thymidine block and kept in the medium for all subsequent steps. Cells were treated at 10 h after release with 100 nM okadaic acid, 25 μg/ml cycloheximide and 12 μM proTAME as indicated. After 2 h treatment, cells were collected by mitotic shake-off. Cell pellets were washed twice with DPBS and flash-frozen with liquid nitrogen and stored at −80° C. until use. Cell lysis and APC immunoprecipitation were performed as described above.

[1] = ProTAME activation analysis (LC/MS) in extract; format: in vitro ADME; details: 50 μM in interphase Xenopus extract
Protocol: as §1

HeLa H2B-GFP cells = assay: Emi1 knockdown and proTAME rescue; format: cell-based, human; details: 12 μM
Protocol: HeLa H2B-GFP cells were plated in glass-bottom 24-well plates at 20% confluence one day prior to the experiment. Cells were transfected with a pool of Emi1 siRNA (Dharmacon M-012434-01, 5′-[…]-3′ (SEQ ID NO: 4); 5′-[…]-3′ (SEQ ID NO: 5); 5′-[…]-3′ (SEQ ID NO: 6); 5′-[…]-3′ (SEQ ID NO: 7)) or Control#3 siRNA (described above) at 18.5 nM with DharmaFect3. After 24 h, cells were treated with 0.06% DMSO or 12 μM proTAME. Live cell imaging was set up as described above.

[2] = Fig S4A, asynchronous hTERT-RPE1 cells, proAAME 12 μM, proTAME 6 μM

T1 sequence (P30260 whole entry): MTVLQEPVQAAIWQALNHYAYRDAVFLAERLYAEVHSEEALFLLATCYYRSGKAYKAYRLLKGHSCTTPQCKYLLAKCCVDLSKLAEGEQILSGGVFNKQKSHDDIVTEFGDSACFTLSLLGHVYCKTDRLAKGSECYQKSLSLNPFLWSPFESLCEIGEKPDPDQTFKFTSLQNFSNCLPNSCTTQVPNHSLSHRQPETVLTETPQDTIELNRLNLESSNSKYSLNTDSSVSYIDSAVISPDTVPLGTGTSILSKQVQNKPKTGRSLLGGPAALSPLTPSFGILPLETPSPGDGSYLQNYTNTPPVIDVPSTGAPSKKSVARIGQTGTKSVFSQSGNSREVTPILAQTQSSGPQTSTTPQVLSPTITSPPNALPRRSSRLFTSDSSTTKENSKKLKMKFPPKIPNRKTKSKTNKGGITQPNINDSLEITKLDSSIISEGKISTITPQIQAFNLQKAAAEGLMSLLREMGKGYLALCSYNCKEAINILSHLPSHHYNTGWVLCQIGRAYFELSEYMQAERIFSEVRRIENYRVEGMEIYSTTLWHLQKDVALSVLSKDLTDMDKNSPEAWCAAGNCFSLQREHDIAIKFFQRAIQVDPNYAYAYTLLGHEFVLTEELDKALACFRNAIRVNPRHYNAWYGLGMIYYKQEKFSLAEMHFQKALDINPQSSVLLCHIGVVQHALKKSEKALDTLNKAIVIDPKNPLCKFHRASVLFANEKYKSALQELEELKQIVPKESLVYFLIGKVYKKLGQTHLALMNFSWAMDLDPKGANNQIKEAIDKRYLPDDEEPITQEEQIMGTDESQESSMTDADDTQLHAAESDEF

COC(=O)[C@H](CCCN/C(=N\C(=O)OCOC(=O)Cc1ccccc1)NC(=O)OCOC(=O)Cc1ccccc1)NS(=O)(=O)c1ccc(C)cc1 [proTAME]
Activation of prodrug (HeLa cells): activated efficiently in HeLa cells | Average mitotic duration (hTERT-RPE1 H2B-GFP cells; [2]): 819.0 min | Median mitotic duration (hTERT-RPE1 H2B-GFP cells; [2]): 522 min | Median mitotic duration (hTERT-RPE1 H2B-GFP cells; asynchronous hTERT-RPE1, 6 μM): over 8 h | Dissociation of Cdc20 from the APC (APC; HeLa arrested by nondegradable cyclin B, 12 μM): induced significant dissociation of Cdc20 from the APC, but only if SAC proteins were depleted by RNAi | Cdh1 association with the APC (APC; HeLa cells in G1, 12 μM): inhibited Cdh1 association with the APC | Reduction in Cdc20 binding to the APC (APC; HeLa, 12 μM plus 10 μM MG132 for 2 hours): 30% | Conversion of prodrug to TAME [1]: rapidly converted to TAME | Rescue of mitotic entry defect in Emi1-depleted cells (HeLa H2B-GFP cells): substantially rescued the mitotic entry defect caused by depletion of Emi1
